Test results taken from PMC4178217, “Quinoline 3-sulfonamides inhibit lactate dehydrogenase A and reverse aerobic glycolysis in cancer cells” (Cancer & Metabolism, 2013).

Key:
Snu398 cells [1] = experiment: Oxygen consumption and extracellular acidification rates, Snu398 (Seahorse); format: cell-based; details: Homo sapiens, SNU-398, 92 min, Snu398, 92 minutes after addition
Method: One hundred twenty thousand Snu398 or HepG2 human hepatocellular carcinoma cells per well were plated in XF24 PS or XF96 PET cell culture microplates (Seahorse Biosciences, North Billerica, MA, USA) and allowed to attach and proliferate for 18 h. Cells were equilibrated with DMEM lacking bicarbonate (Seahorse Biosciences) supplemented with glucose at 37°C for 1 h in an incubator lacking CO2. The rate of change of dissolved O2 (oxygen consumption rate, OCR) and rate of change of pH (extracellular acidification rate, ECAR) in medium immediately surrounding the cells was measured in the XF24 Analyzer (Seahorse Biosciences) per manufacturer’s instructions. Compound doses were injected into the wells at the indicated times. For dose response curves, the OCR and ECAR levels obtained in each well before compound addition were subtracted from the values obtained 92 minutes after compound addition.

PK analysis in mice = format: in vivo, male CD mice; details: oral 100 mg/kg, detection limit 2.5 ng/mL
Method: (§1) All studies were conducted after review by the Institutional Animal Care and Use Committee at GlaxoSmithKline (GSK) and in accordance with the GSK Policy on the Care, Welfare and Treatment of Laboratory Animals.

Snu398 cells [2] = experiment: Pyruvate kinase (PK) activity, Snu398; format: cell-based; details: Homo sapiens, SNU-398; Snu398, 6 h
Method: (§2) One and a half million cells per well were plated in 6-well tissue culture plates in R10 medium and allowed to attach overnight. The following morning, cells were washed and medium replaced with 2 mL/well of low-glucose medium. DMSO control or the indicated doses of LDHA inhibitor dissolved in DMSO were added to the wells and cells were incubated at 37°C for 6 h. Following the incubation, cells were washed, scraped into 200 μl of distilled de-ionized water and homogenized on ice using OMNI THq homogenizer (Omni International, Kennesaw, GA, USA). Homogenates were cleared by centrifugation and protein concentration measured by bicinchoninic acid (BCA) assay (Thermo Fisher Scientific, Waltham, MA, USA). PK activity was determined using PK Activity kit (BioVision Research Products) per manufacturer’s instructions and normalized to protein concentration. For detection of PKM2 oligomerization, the same protein samples were separated by non-denaturing gel electrophoresis using the NativePAGE™ gel system (Life Technologies), transferred onto polyvinylidene difluoride (PVDF) membranes and subjected to western immunoblotting with anti-PKM2 antibody.

PK analysis in rats = format: in vivo, male Sprague–Dawley rats
Method: as §1

MDA-MB-453 cells [3] = experiment: ECAR after rotenone/antimycin, MDA-MB-453 (Seahorse XF96); format: cell-based; details: Homo sapiens; MDA-MB-453, after rotenone/antimycin
Method: For XF96 experiments breast cancer cells were seeded in DMEM without bicarbonate at 16,000/well in XF96 V3 PET plates (Seahorse Biosciences) coated with CellTak (BD Biosciences, San Jose, CA, USA). […] HepG2 cells were seeded at 16K/well in XF96 V3 PET plates and left overnight for attachment. The medium was exchanged with DMEM without bicarbonate prior to readings on the XF96 Analyzer (Seahorse Biosciences).

Snu398 cells [4] = experiment: Cell proliferation and survival, Snu398 (trypan blue, Vi-Cell); format: cell-based, human
Method: Sixty thousand Snu398 cells per well were plated in 6-well tissue culture plates in RPMI-1640 medium supplemented with 2.5% charcoal-stripped FBS (Life Technologies). Cells were allowed to attach overnight and then DMSO control or the indicated doses of LDHA inhibitor dissolved in DMSO were added directly to the wells. After 4 to 8 days of incubation in the indicated oxygen conditions, adherent cells were trypsinized, counted, and had their viability assessed by the trypan-blue exclusion method using the Vi-Cell XR Cell Viability Analyzer (Beckman Coulter, Brea, CA, USA). The same procedure was carried out for HepG2 cells, except non-charcoal-stripped FBS was used. For PARP cleavage analysis, both floating and adherent cells were collected after 24 h and the whole-cell extracts were prepared in radioimmunoprecipitation assay (RIPA) buffer (Sigma-Aldrich) supplemented with protease and phosphatase inhibitor cocktails (Sigma-Aldrich). Solubilized proteins were separated by SDS-PAGE, transferred onto nitrocellulose membrane, and detected with each specific antibody.

PKM2 in Snu398 cells = experiment: PKM2 tetramerization (native gel, western immunoblotting); format: cell-based, human; details: Snu398, 6 h
Method: as §2

HepG2 cells = experiment: 13C NMR spectroscopy of glucose consumption and lactate production, HepG2; format: cell-based, human; details: HepG2, 10 μM
Method: (§3) After this pre-incubation, cells were washed in PBS and resuspended in 400 μL of glucose-free RPMI supplemented with 10% deuterium oxide, 11 mM D-(1,6-^13C2)glucose, and LDHA inhibitor or DMSO. An additional 600 μL of the same medium was gently added to top off the resuspended cells. Five mm NMR tubes with reduced sample depth (Shigemi Inc, Allison Park, PA, USA) were used to ensure that the cells remain inside the active volume of the receiver coil of the probe. […] . Prior to Fourier transformation, sensitivity and resolution were enhanced by applying an exponential line-broadening of 1 Hz over the first 32,000 data points and then zero filled to 256,000 data points. Spectra were analyzed using in-house data analysis software.

[5] = rat plasma protein equilibrium dialysis assay; format: in vitro ADME; details: read-out: rat plasma protein binding (converted)
Snu398 cells [6] = experiment: 13C NMR spectroscopy of glucose consumption and lactate production, Snu398; format: cell-based, human
Method: as §3

MDA-MB-453 cells [7] = experiment: Lactate production in normoxia/hypoxia, MDA-MB-453 (YSI analyzer); details: Homo sapiens, MDA-MB-453, 2 h, read-out: lactate production EC50 in hypoxia
recombinant human LDHA = recombinant human LDHA (Homo sapiens, UniProt P00338); experiment: LDHA enzymatic assay with increasing levels of NADH; format: biochemical; details: NADH 120 μM; read-out: LDHA IC50 at high NADH
Method: LDHA enzymatic assay with increasing levels of NADH The following reaction was assembled in clear-bottom 96 well plate: 50 mM phosphate buffer pH 7.0, 50 mM NaCl, 0.25 mM CHAPS, 200 µM NaPyruvate, 250 pM recombinant human LDHA, and the indicated amounts of NADH and Compound 2. Absorbance change due to NADH conversion to NAD^+ was read on SpectraMax M2 (Molecular Devices, Sunnyvale, CA) at 340 nm every 40 sec for 6 min.

## COc1ncc(-c2ccc3c(Nc4cc(Oc5cc(F)cc(F)c5)cc(C(=O)O)c4)c(S(=O)(=O)NC4CC4)cnc3c2)c(OC)n1 [Compound 1]
Snu398 cells [1]; read-out: ECAR change EC50
  EC50: 600 ± 200 nM
Snu398 cells [1]; read-out: OCR change EC50
  EC50: 500 ± 300 nM
PK analysis in mice
  blood compound level: ≤ 2.5 ng/mL
Snu398 cells [2]
  EC50: 600 nM
PK analysis in rats; male, Sprague-Dawley, rat, whole blood, IV infusion 0.25 mg/kg
  clearance: 69 mL/min/kg
PK analysis in rats; oral 50 mg/kg, detection limit 2.5 ng/mL
  blood compound level: ≤ 2.5 ng/mL
MDA-MB-453 cells [3]
  EC50: 10000 nM
Snu398 cells [4]; Homo sapiens, SNU-398, Snu398, 4 to 8 days, read-out: viable cell number EC50
  EC50: 2900 ± 600 nM
Snu398 cells [4]; Snu398, with FK866
  dose sufficient to induce cell death: 3 µM
PKM2 in Snu398 cells
  PKM2 tetramerization: dose dependently promoted formation of the active tetrameric form of PKM2
HepG2 cells
  (3-13C)lactate production: significantly slowed down lactate production
[5]
  fraction unbound: 0.012
Snu398 cells [6]; Snu398, 10 μM
  (3-13C)lactate production: significantly slowed down lactate production
Snu398 cells [6]; Snu398 versus HepG2, 10 μM
  D-(1,6-13C2)glucose consumption: only affected glucose consumption in Snu398 cells
MDA-MB-453 cells [7]
  EC50: 10000 nM

## COc1ncc(-c2ccc3c(Nc4cc(C(=O)O)cc(C5CCCC5)c4)c(S(=O)(=O)NC4CC4)cnc3c2)c(OC)n1 [Compound 2]
Recombinant human LDHA
  IC50: 67 nM
